According to patent US12410124B2 (priority 2019, dated 2025):
Read-outs that look alike come from different tables or passages of the source.

What was measured:
substantia nigra p-α-s = assay: Substantia nigra p-α-s protein expression in MPTP Parkinson's disease model mouse (immunofluorescence); type: in vivo; settings: percentage of mean intensity of blank control group, gavage 21 days after MPTP modeling
Protocol: (§1) Neurotoxins can be used to establish PD animal models. Currently, 1-methyl-4-phenyl-1,2,3,6-tetrahydropyridine (MPTP) is the sole synthetic toxin which is recognized to induce PD symptoms in human and non-human primates and in mice. Using MPTP subacute modeling method, C57BL/6J male mice were intraperitoneally injected with MPTP 30 mg/kg, once a day for 5 consecutive days. The experiment animals were divided into blank control group, MPTP model group, and compound treatment group. For the […] compound treatment group, the compound was administrated by gavage for 21 consecutive days after the completion of modeling; for the MPTP model group, the normal saline was administrated by gavage for 21 consecutive days after the completion of modeling; and for the blank control group, the normal saline was first intraperitoneally injected for 5 days, and then administrated by gavage for 21 days.
Alpha-synuclein is an “unfolded protein” in its natural state. It exists in a monomeric form, and participates in the physiological functions such as the release of neurotransmitters, the establishment of synaptic junctions, and the regulation of synaptic plasticity. Under pathological conditions, more than 90% of alpha-synuclein is phosphorylated at serine of position 129 and converted into phosphorylated alpha-synuclein (p-α-s), thereby forming Lewy bodies. The formation of Lewy bodies is one of the main pathological manifestations and pathological mechanisms for Parkinson's disease, and plays an important role in the formation and development of PD. The detection of the p-α-s expression in the midbrain and substantia nigra of PD model mice can evaluate the neuroprotective activity of the compound.
(§2) Half of experiment mice in each group were taken to separate the midbrain after perfusion and fixation. The tissue was trimmed, and the substantia nigra-striatum area was taken to prepare paraffin sections. The p-α-s immunofluorescence staining was performed in the brain sections of mice in each group. […] The experiment included blank control group, MPTP model group, positive control group (caffeic acid phenethyl ester, CAPE), prototype control group (styryl sulfone compounds 3B, 3C, 3D, and 3G, whose structures are shown as above), and target compound group.

[1] = target: acetylcholinesterase (AchE) (Homo sapiens, UniProt P22303); assay: biochemical
Protocol: The modified Ellman method was used to determine the inhibitory activity on acetylcholinesterase. The principle lies in that acetylthiocholine iodide is decomposed under the action of acetylcholinesterase (AchE) to generate thiocholine. The thiocholine is quickly reacted with DTNB as the colour-developing agent to generate a yellow substance with light absorption at 405 nm. To a 96-well microplate, 50 μl of enzyme reaction buffer, 125 μl of DTNB (3 mM), 25 μl of test sample or positive control drug, and 25 μl of AchE (0.2 U/ml) were successively added. After incubation at room temperature for 5 min, 25 μl of ATCI (15 mM) was added. After incubation at room temperature for 8 min, the absorbance value was determined at 405 nm with a microplate reader. A blank control group without enzyme (25 μl PBS instead of the sample to be tested) was also established.

primary glial cells = assay: Inhibition of the NO release of primary glial cells induced by LPS; type: cell-based, rat; settings: for inhibition at 5 µM / inhibition at 10 µM / inhibition at 20 µM / inhibition at 2 µM: Rattus norvegicus, Glial cell, read-out: NO inhibition (%)
Text: Lipopolysaccharide (LPS) is a main component of the cell wall of Gram-negative bacteria. It is a potent inflammatory factor that can directly activate gliocytes, and the activated gliocytes secrete a large amount of inflammation mediators such as tumor necrosis factor, interleukin, and nitric oxide, thus causing inflammatory reactions and oxidative stress reactions and eventually leading to neuronal denaturation and death. In recent years, the targeted injection of LPS into rat substantia nigra or striatum to induce neuroinflammation can successfully establish PD models, which can simulate most of the clinical manifestations and pathological features of PD, and are used for the study on the neuroinflammation mechanism associated with PD. LPS-induced primary glial cell PD inflammation model is suitable for the preliminary anti-neuroinflammation screening for neuroprotective agents. LPS is used to directly activate primary glial cells to simulate the pathogenesis mechanism of neuroinflammation, and the inhibitory activity of the target compounds on the inflammatory response of primary glial cells can be investigated.
The materials were taken from the brain tissue of fetal rat, for primary glial cell culture. At 7 to 10 days of the culture, LPS was added for the activation of nitric oxide (NO) release in glial cells. When a target compound was added, the reduction value for NO content in the cell culture medium was measured, to evaluate the anti-neuroinflammation activity of the compound. The experiment included blank control group, LPS model group, positive control group (caffeic acid phenethyl ester, CAPE), prototype control group (styryl sulfone compounds 3B, 3C, 3D, and 3G, the structures of which compounds are shown as above), and target compound group.

substantia nigra TH = assay: Substantia nigra TH expression in MPTP Parkinson's disease model mouse (immunofluorescence); type: in vivo; settings: percentage of mean intensity of blank control group, gavage 21 days after MPTP modeling
Protocol: as §1
The main cause of PD lies in the pathological changes in the substantia nigra-striatum projection system of the brain and the progressive degeneration and loss of dopaminergic neurons. Tyrosine hydroxylase (TH) is the first enzyme in the biosynthesis of catecholamine neurotransmitters, as well as the first rate-limiting enzyme in the dopamine synthesis. It plays an important role in the synthesis and metabolism of the neurotransmitter DA. The TH in PD animal models and patients has a wide range of abnormal changes, from the gene expression to the enzyme protein content and enzyme activity. The detection of the TH expression in the midbrain and substantia nigra of PD model mice can be used to evaluate the neuroprotective activity of the compound.
as §2, with “TH” for “p-α-s”

midbrain pp38 = assay: Midbrain pp38 protein expression in MPTP Parkinson's disease model mouse (western-blotting); type: in vivo; settings: midbrain total protein, GAPDH internal reference, gavage 21 days after MPTP modeling
Protocol: as §1
The p38 mitogen-activated protein kinase (p38 MAPK) is expressed in both neurons and glial cells, and is the intersection point of neuron-glial cell network information regulations. The activation of p38 signaling pathway is an important initiator of neuronal degeneration, which continuously induces the apoptosis of dopaminergic neurons in multiple ways. It has become a research hotspot for the treatment of PD. Studies have shown that the protective mechanism of CAPE against the death of primary cultured cerebellar granule neurons induced by glutamate lies in inhibiting the activation of p38 phosphorylation and in turn inhibiting the activation of the caspase 3 apoptotic pathway to prevent neuronal apoptosis. Therefore, the MPTP-induced PD mouse model can be used to investigate the inhibitory effect of the target compounds on the activation of p38 phosphorylation on the overall animal level.
Half of experiment mice in each group were taken to extract the total midbrain protein, and the change in the midbrain phosphorylated p38 protein expression was determined by western-blotting using GAPDH as the internal reference. The experiment included blank control group, MPTP model group, positive control group (caffeic acid phenethyl ester, CAPE), prototype control group (styryl sulfone compounds 3B, 3C, 3D, and 3G, whose structures are shown as above), and target compound group.

[2] = acetylcholinesterase, modified Ellman method, read-out: IC50

Sequence of acetylcholinesterase (AchE) (P22303 32-614, species assumed): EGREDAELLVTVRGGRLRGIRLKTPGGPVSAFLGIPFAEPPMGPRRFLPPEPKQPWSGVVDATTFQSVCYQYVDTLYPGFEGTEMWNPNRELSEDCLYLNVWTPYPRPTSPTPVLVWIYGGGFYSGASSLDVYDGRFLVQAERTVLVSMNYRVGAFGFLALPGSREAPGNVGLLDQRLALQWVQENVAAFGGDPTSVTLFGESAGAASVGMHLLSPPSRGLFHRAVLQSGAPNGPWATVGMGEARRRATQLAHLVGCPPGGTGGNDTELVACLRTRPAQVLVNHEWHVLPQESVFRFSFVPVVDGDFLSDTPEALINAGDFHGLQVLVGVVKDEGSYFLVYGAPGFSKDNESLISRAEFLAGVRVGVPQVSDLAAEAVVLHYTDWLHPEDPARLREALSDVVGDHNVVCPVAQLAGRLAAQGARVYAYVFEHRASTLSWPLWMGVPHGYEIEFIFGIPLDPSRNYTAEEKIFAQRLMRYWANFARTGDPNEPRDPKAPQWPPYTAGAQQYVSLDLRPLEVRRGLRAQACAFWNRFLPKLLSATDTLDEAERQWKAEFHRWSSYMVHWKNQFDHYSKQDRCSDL

Row | Molecule | Expression (Immunofluorescence intensity %) (substantia nigra p-α-s) [%] | IC50 [1, 2] [µM] | NO inhibitory rate compared with the styryl sulfone prototype compounds (primary glial cells) | inhibition at 5 µM (primary glial cells; 5 μM) [%] | inhibition at 10 µM (primary glial cells; 10 μM) [%] | inhibition at 20 µM (primary glial cells; 20 μM) [%] | Expression (Immunofluorescence intensity %) (substantia nigra TH) [%] | Expression (pp38/GAPDH) (midbrain pp38) | inhibition at 2 µM (primary glial cells; 2 μM) [%] | IC50 [1] [µM] | inhibition at 5 µM (primary glial cells) [%] | inhibition at 10 µM (primary glial cells) [%] | inhibition at 20 µM (primary glial cells) [%] | IC50 ([1]; read-out: IC50 values (acetylcholinesterase)) [µM] | NO inhibition (%) (primary glial cells; 2 μM) | NO inhibition (%) (primary glial cells; 5 μM) | NO inhibition (%) (primary glial cells; 10 μM)
1 | CCN(CC)C(=O)Oc1ccc(/C=C/S(=O)(=O)CCCc2ccccc2)cc1OC(=O)N(CC)CC [Compound C1-1, (E)-4-[2-(3-phenylpropylsulfonyl)ethenyl]-1,2-phenylenebis(diethylcarbamate)] | 123.59 ± 8.25 | 14.7 ± 3.51 | equivalent or higher inhibitory rate | 17.6 ± 3.24 | 32.8 ± 5.25 | 59.5 ± 4.33 | 96.58 ± 6.15 | 0.63 ± 0.06 | – | – | – | – | – | – | – | – | –
2 | CCN(CC)C(=O)Oc1ccc(/C=C/S(=O)(=O)Cc2ccc(C(C)(C)C)cc2)cc1OC(=O)N(CC)CC [Compound G1-1, (E)-4-{2-[(4-t-butylphenyl)mesyl]ethenyl}-1,2-phenylenebis(diethylcarbamate)] | 77.36 ± 9.15 | 10.8 ± 2.13 | equivalent or higher inhibitory rate | 64.2 ± 3.25 | 85.8 ± 5.01 | – | 77.13 ± 7.40 | 0.33 ± 0.07 | 27.2 ± 3.98 | – | – | – | – | – | – | – | –
3 | COc1ccc(CC(=O)Oc2ccc(/C(C)=C/S(=O)(=O)/C=C/c3ccc(OC(=O)N(C)C)c(O[Si](C)(C)CCl)c3)cc2)cc1 [Compound P1-7, 4-{(E)-1-[(E)-3-(chloromethyldimethylsiloxy)-4-(N,N-dimethylcarbamoyloxy)styrylsulfonyl]prop-1-en-2-yl}phenyl-2-(4-methoxyphenyl) acetate] | 61.28 ± 5.36 | – | – | – | – | – | 88.07 ± 5.03 | 0.40 ± 0.04 | – | 21.4 ± 2.07 | 21.3 ± 4.43 | 41.2 ± 1.95 | 71 ± 3.67 | – | – | – | –
4 | O=C(/C=C/c1ccc(O)c(O)c1)OCCc1ccccc1 [Positive control group, caffeic acid phenethyl ester, reference compound] | 202.07 ± 8.34 | > 100 | – | 45.2 ± 3.85 | 77.1 ± 4.37 | – | 79.21 ± 6.59 | 0.58 ± 0.12 | 31.5 ± 5.43 | – | – | – | – | > 100 | – | – | –
5 | CNC(=O)Oc1ccc(/C=C/S(=O)(=O)CC(Cl)c2ccc(Cl)c([N+](=O)[O-])c2)cc1O (stereo not drawn) [Compound E2-2, (E)-4-{2-[2-chloro-2-(4-chloro-3-nitrophenyl)ethylsulfonyl]ethenyl}-2-hydroxyphenyl-N-methylcarbamate] | 128.26 ± 11.62 | – | – | – | – | – | 93.12 ± 4.56 | 0.43 ± 0.06 | – | 51.3 ± 3.94 | 20.3 ± 4.73 | 36.8 ± 6.11 | 68.9 ± 3.75 | – | – | – | –
6 | CC(C)N(c1ccc(CCS(=O)(=O)/C=C/c2ccc(OC(=O)N(C)c3ccc(I)cc3)c(OCCOCc3ccccc3)c2)cc1)C(C)C [Compound A1-3, (E)-2-(2-benzyloxyethoxy)-4-{2-[4-(N,N-diisopropylamino)phenylethylsulfonyl]ethenyl}phenyl-N-(4-iodophenyl)-N-methylcarbamate] | 134.19 ± 11.28 | – | – | – | – | – | 89.68 ± 5.69 | 0.27 ± 0.08 | – | 25.2 ± 3.34 | 19.6 ± 3.67 | 43.2 ± 2.36 | 62.1 ± 4.73 | – | – | – | –
7 | CC[Si](CC)(Oc1ccc(C(Cl)S(=O)(=O)/C=C/c2ccc(OC(=O)N3CC(C)OC(C)C3)c(OC(=O)c3cccc(Cl)c3OC)c2)cc1)c1ccccc1 (stereo not drawn) [Compound R1-5, (E)-4-{2-[4-(diethylphenylsiloxy)phenylchloromesyl]ethenyl}-2-(3-chloro-2-methoxybenzoyloxy)phenyl-2,6-dimethylmorpholine-4-carboxylate] | 125.28 ± 9.35 | 27.5 ± 3.49 | – | 23.8 ± 4.32 | 48.5 ± 3.68 | 73.6 ± 3.92 | 92.45 ± 3.93 | 0.44 ± 0.07 | – | – | – | – | – | – | – | – | –
8 | (E)-2-[(methylamino)methoxy]-4-{2-[1-(4′-nitro-[1,1′-biphenyl]-4-yl)ethylsulfonyl]ethenyl}phenylcarbamate [Compound M1-3] | 79.17 ± 5.10 | 17.6 ± 2.19 | – | – | – | – | 84.07 ± 3.19 | 0.42 ± 0.06 | – | – | – | – | – | – | 23.93 ± 4.67 | 47.42 ± 4.43 | 73.41 ± 4.83
9 | O=S(=O)(/C=C/c1ccc(O)c(O)c1)Cc1ccc(C(F)(F)F)cc1 [Compound 3B, (E)-4-{2-[(4-trifluoromethylphenyl)mesyl]ethenyl}benzene-1,2-diol, reference compound] | 236.55 ± 13.78 | > 100 | – | 17.2 ± 4.56 | 38.6 ± 2.13 | 92 ± 3.01 | 83.18 ± 5.87 | 1.18 ± 0.08 | – | – | – | – | – | – | – | – | –
